Assay results as given in patent US11904051B2, “Shear stress sensitive liposomes” (Universität Basel, priority 2018, dated 2024).

Tests used:
[1] = Spatially resolved SAXS of liposomes under dynamic (flow/shear) condition in microfluidic device; type: physicochemical
Description: The measurement in glass capillaries provided the fingerprint of Pad-PC-Pad liposome structure in static condition. In order to investigate the behavior of Pad-PC-Pad liposomes under an external perturbation, such as a shear stress gradient, 2D raster SAXS scans of Pad-PC-Pad liposomes under flow conditions, produced in a microfluidic device, were recorded. Three flow velocities v were tested: v=0.002; 0.02; and 0.2 μL/s. The corresponding shear rates were determined using Eq. 1. From the lowest to the highest flow rate, the shear rates in the constriction (h=250 μm, w=125 μm) were=1.54, 15.4, and 154.0 s^−1, whereas in the wide region (h=250 μm, w=1000 μm) they corresponded to =0.2 s^−1, 2.0 s^−1, and 20.0 s^−1 2 D maps of the mean scattering intensity in the range Δq=0:096 to 0:102 nm^−1 corresponding to a real space range Δd=65.4 to 61.6 nm between the overall size and the size of the phospholipid head-to-head distance are shown in FIG. 12.
The local modifications of the averaged scattering intensity distribution observed in the 2D scanning SAXS maps of FIG. 12 supported the selection of seven regions of the micro fluidic device, as shown in the sketch of FIG. 13. Three regions were selected before the constriction: one far (#1), one approaching (#2), and one very close (A); symmetrically, on the outlet side, three areas were chosen one very close (B), one close (#4), and one far from the constriction (#5). Region #3 was selected in the constriction avoiding the edges of the device. For each region, the radially integrated scattering intensity I as a function of the scattering vector q at each flow rate v is shown.
The spatially resolved SAXS measurements were performed at the cSAXS beamline at the Swiss Light Source (PSI, Villigen, Switzerland). The X-ray beam was focused to 25 μm×50 μm (vertical×horizontal) spot size at the specimen location, the photon energy was set to 11:2 keV (λ=1:1 Å), and the sample-detector distance to 7:102 m, determined by the first scattering order of a silver behenate specimen. The scattering signal was recorded using the Pilatus 2M detector (Kraftet al., J. Synchrotron Radiat. 2009, 16, 368-375) (pixel size: 172 μm_×172 μm). Dynamic spatially resolved SAXS measurements of the liposomal suspensions were performed using microfluidic devices mounted on an aluminum/polyetheretherketone/aluminum sample holder. Two-dimensional (2D) scans were realized line-by-line by continuously moving the device in horizontal direction, while the detector recorded the data in burst mode. 48 (v)×96 (h) points at step size 25 μm (v)×50 μm (h) were acquired in a pre-selected region of the microfluidic device with an exposure time of 1:5 s per point. The data were processed using the Matlab package available from the beamline (https://www.psi.ch/sls/csaxs/software). During the experiment, the flow rates were adjusted using a syringe pump system (Nemesys, Cetoni GmbH, Korbussen, Germany) connected to the microchannel using polytetrafluoroethylene (PTFE) tubing. For the point-wise background correction, the scattering signal of ultra-pure water in the microfluidic device for all the measured flow rates was recorded before the acquisition of the SAXS signal of the liposomal suspensions. For the microfluidic device with a rectangular channel cross-section, the wall shear rates were calculated from the volumetric flow rates v using the following equation: (Molloy et al., Journal of Thrombosis and Haemostasis 2016, 15, 972-982) λ=6v=h^2w (1) with the shear rate [s^−1], v the volumetric flow rate [μL/s], and w and h the width and height [μm] of the channel, respectively.

[2] = Dynamic light scattering of liposomes (Delsa Nano C); type: physicochemical; conditions: 25 ° C.
Description: The lipid concentration of the two formulations was determined using the phosphate test (Stalder and Zumbuehl. CHIMIA International Journal for Chemistry 2013, 67, 819-821). Size and size distribution of the liposomes were quantified by means of dynamic light scattering (DLS) using a Delsa Nano C (Beckman Coulter, USA). DLS measurements were performed at a temperature of 25° C., using two laser diodes working at a wavelength of 658 nm. The scattering angle was set to 165 degrees. Cryo-TEM images of Pad-PC-Pad liposomal suspension were taken by mounting the liposomal suspension on glow-discharged holey carbon grids, quickly frozen by a Cryoplunge CP3 system (Gatan, USA), and transferred to a JEM2200FS transmission electron microscope (JEOL, Japan) using a Gatan626 cryo-holder. Cryo-TEM micrographs were recorded at an acceleration voltage of 200 kV at a magnification of 20,000, 4-8 μm under-focus, and a dose of 10 electrons=Å^2, using a F416 CMOS detector (TVIPS, Germany).

[3] = flow rate 0.002 pL/s, position #1
[4] = flow rate 0.002 pL/s, position #2
[5] = flow rate 0.002 pL/s, position #3 (constriction)
[6] = flow rate 0.002 pL/s, position #4
[7] = flow rate 0.002 pL/s, position #5
[8] = flow rate 0.002 pL/s, position A
[9] = flow rate 0.002 pL/s, position B
[10] = flow rate 0.02 pL/s, position #1
[11] = flow rate 0.02 pL/s, position #2
[12] = flow rate 0.02 pL/s, position #3 (constriction)
[13] = flow rate 0.02 pL/s, position #4
[14] = flow rate 0.02 pL/s, position #5
[15] = flow rate 0.02 pL/s, position A
[16] = flow rate 0.02 pL/s, position B
[17] = flow rate 0.20 pL/s, position #1
[18] = flow rate 0.20 pL/s, position #2
[19] = flow rate 0.20 pL/s, position #3 (constriction)
[20] = flow rate 0.20 pL/s, position #4
[21] = flow rate 0.20 pL/s, position #5
[22] = flow rate 0.20 pL/s, position A
[23] = flow rate 0.20 pL/s, position B

What does the source list for `CCCCCCCCCCCCCCCC(=O)NCC(CNC(=O)CCCCCCCCCCCCCCC)OP(=O)([O-])OCC[N+](C)(C)C` [Pad-PC-Pad, 1,3-palmitoylamido-1,3-deoxy-sn-glycero-2-phosphatidylcholine]?
Radius of gyration Rg [1, 3]: 59.5 ± 0.2 nm; head-to-head distance dhh [1, 3]: 3.4 ± 0.7 nm; Radius of gyration Rg [1, 4]: 59.1 ± 0.1 nm; head-to-head distance dhh [1, 4]: 3.1 ± 0.4 nm; Radius of gyration Rg [1, 5]: 63.0 ± 0.5 nm; head-to-head distance dhh [1, 5]: 3.9 ± 0.7 nm; Radius of gyration Rg [1, 6]: 61.1 ± 0.2 nm; head-to-head distance dhh [1, 6]: 3.9 ± 0.4 nm; Radius of gyration Rg [1, 7]: 61.6 ± 0.2 nm; head-to-head distance dhh [1, 7]: 3.8 ± 0.3 nm; Radius of gyration Rg [1, 8]: 60.3 ± 0.4 nm; head-to-head distance dhh [1, 8]: 3.4 ± 0.5 nm; Radius of gyration Rg [1, 9]: 59.3 ± 0.9 nm; head-to-head distance dhh [1, 9]: 4.0 ± 0.6 nm; Radius of gyration Rg [1, 10]: 60.2 ± 0.2 nm; head-to-head distance dhh [1, 10]: 3.4 ± 0.7 nm; Radius of gyration Rg [1, 11]: 58.0 ± 0.4 nm; head-to-head distance dhh [1, 11]: 2.9 ± 0.2 nm; Radius of gyration Rg [1, 12]: 64.3 ± 0.6 nm; head-to-head distance dhh [1, 12]: 3.5 ± 0.6 nm; Radius of gyration Rg [1, 13]: 59.1 ± 0.3 nm; head-to-head distance dhh [1, 13]: 3.6 ± 0.3 nm; Radius of gyration Rg [1, 14]: 61.3 ± 0.1 nm; head-to-head distance dhh [1, 14]: 3.9 ± 0.4 nm; Radius of gyration Rg [1, 15]: 55.1 ± 0.5 nm; head-to-head distance dhh [1, 15]: 2.9 ± 0.2 nm; Radius of gyration Rg [1, 16]: 52.4 ± 0.8 nm; head-to-head distance dhh [1, 16]: 4.3 ± 0.5 nm; Radius of gyration Rg [1, 17]: 61.6 ± 0.4 nm; head-to-head distance dhh [1, 17]: 3.4 ± 0.9 nm; Radius of gyration Rg [1, 18]: 61.0 ± 0.5 nm; head-to-head distance dhh [1, 18]: 3.4 ± 0.7 nm; Radius of gyration Rg [1, 19]: 64.0 ± 0.8 nm; head-to-head distance dhh [1, 19]: 3.8 ± 0.8 nm; Radius of gyration Rg [1, 20]: 58.0 ± 0.3 nm; head-to-head distance dhh [1, 20]: 4.0 ± 0.6 nm; Radius of gyration Rg [1, 21]: 60.0 ± 0.4 nm; head-to-head distance dhh [1, 21]: 4.0 ± 0.7 nm; Radius of gyration Rg [1, 22]: 61.4 ± 0.6 nm; head-to-head distance dhh [1, 22]: 3.2 ± 0.6 nm; Radius of gyration Rg [1, 23]: 52.3 ± 0.9 nm; head-to-head distance dhh [1, 23]: 4.4 ± 0.4 nm; mean diameter (DLS) [2]: 131.6+/−0.9 nm; polydispersity index (PDI) [2]: 0.103+/−0.009
